Measurements: ChEMBL document CHEMBL5550160, “Leveraging a rationally designed veliparib-based anilide eliciting anti-leukemic effects for the design of pH-responsive polymer nanoformulation” (Eur J Med Chem, 2024)
pIC50: −log10 of the molar value.

What was measured:
A549 = experiment: cells; format: functional, cell-based; conditions: Homo sapiens
Description: Antiproliferative activity against human A549 cells assessed as inhibition of cell growth by MTT assay

PC-3 = experiment: cells; format: functional, cell-based; conditions: Homo sapiens
Description: Antiproliferative activity against human PC-3 cells assessed as inhibition of cell growth by MTT assay

HL-60 = experiment: cells; conditions: Homo sapiens
Description: Antiproliferative activity against human HL-60 cells assessed as inhibition of cell growth by MTT assay

K562 = experiment: cells; conditions: Homo sapiens
Description: Antiproliferative activity against human K562 cells assessed as inhibition of cell growth by MTT assay

FaDu = experiment: cells; format: functional, cell-based; conditions: Homo sapiens
Description: Antiproliferative activity against human FaDu cells assessed as inhibition of cell growth by MTT assay

HH = experiment: cells; format: functional, cell-based; conditions: Homo sapiens
Description: Antiproliferative activity against human HH cells assessed as inhibition of cell growth by MTT assay

SiHa = experiment: cells; format: functional, cell-based; conditions: Homo sapiens
Description: Antiproliferative activity against human SiHa cells assessed as inhibition of cell growth by MTT assay

MOLT-4 = experiment: cells; format: functional, cell-based; conditions: Homo sapiens
Description: Antiproliferative activity against human MOLT-4 cells assessed as inhibition of cell growth by MTT assay

MDA-MB-231 = experiment: Antiproliferative activity against human MDA-MB-231 cells assessed as inhibition of cell growth by MTT assay; format: functional, cell-based
Histone deacetylase 2 = Histone deacetylase 2 (Homo sapiens, UniProt Q92769); experiment: Inhibition of HDAC2 (unknown origin)
Histone deacetylase 1 = Histone deacetylase 1 (Homo sapiens, UniProt Q13547); experiment: Inhibition of HDAC1 (unknown origin) using p53 residues 379 to 382 [RHKK(Ac)] as fluorogenic substrate
Histone deacetylase 3 = Histone deacetylase 3 (Homo sapiens, UniProt O15379); experiment: Inhibition of HDAC3 (unknown origin) using p53 residues 379 to 382 [RHKK(Ac)] as fluorogenic substrate
Histone deacetylase 3, sequence (O15379 whole entry, the tested form may be a part): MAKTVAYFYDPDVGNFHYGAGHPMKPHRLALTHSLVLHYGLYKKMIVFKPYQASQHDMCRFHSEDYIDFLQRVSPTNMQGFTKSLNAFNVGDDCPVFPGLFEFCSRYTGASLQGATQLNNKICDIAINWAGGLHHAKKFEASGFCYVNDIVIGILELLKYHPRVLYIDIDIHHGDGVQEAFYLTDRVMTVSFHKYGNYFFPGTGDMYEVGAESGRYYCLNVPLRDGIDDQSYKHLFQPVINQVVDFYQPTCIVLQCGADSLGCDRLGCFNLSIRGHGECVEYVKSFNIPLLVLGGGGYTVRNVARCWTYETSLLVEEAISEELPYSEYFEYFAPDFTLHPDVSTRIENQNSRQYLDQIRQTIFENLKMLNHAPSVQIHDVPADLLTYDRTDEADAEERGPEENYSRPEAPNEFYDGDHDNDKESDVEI

Histone deacetylase 1, sequence (Q13547 whole entry, the tested form may be a part): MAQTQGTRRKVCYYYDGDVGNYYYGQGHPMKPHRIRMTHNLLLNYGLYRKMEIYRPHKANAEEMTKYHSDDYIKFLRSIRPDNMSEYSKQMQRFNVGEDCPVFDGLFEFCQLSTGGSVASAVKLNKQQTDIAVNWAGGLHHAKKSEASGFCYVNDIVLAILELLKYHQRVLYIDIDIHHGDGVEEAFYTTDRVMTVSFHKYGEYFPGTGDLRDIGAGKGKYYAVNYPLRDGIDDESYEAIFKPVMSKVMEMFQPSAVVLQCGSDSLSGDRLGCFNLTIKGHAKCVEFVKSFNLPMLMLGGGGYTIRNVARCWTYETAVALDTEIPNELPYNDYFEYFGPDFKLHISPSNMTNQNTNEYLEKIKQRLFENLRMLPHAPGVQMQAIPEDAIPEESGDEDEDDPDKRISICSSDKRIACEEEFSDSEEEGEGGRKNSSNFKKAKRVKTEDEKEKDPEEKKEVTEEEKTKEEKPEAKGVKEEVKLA
Histone deacetylase 2, sequence (Q92769 whole entry, the tested form may be a part): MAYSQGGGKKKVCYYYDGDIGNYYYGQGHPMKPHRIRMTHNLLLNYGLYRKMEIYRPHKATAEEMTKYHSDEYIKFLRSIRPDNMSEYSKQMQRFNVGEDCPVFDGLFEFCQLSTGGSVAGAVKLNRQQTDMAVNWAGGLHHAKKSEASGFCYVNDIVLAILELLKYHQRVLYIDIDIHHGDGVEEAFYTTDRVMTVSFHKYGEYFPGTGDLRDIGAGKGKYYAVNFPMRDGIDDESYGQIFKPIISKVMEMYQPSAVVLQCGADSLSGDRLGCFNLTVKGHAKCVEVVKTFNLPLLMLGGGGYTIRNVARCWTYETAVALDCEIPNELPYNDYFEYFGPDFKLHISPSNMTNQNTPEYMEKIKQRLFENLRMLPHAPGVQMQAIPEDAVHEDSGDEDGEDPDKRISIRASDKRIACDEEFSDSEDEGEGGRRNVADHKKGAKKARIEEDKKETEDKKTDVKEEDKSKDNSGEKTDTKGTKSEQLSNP

| pIC50 (A549) | pIC50 (PC-3) | pIC50 (HL-60) | Compound | other results |
| --- | --- | --- | --- | --- |
| < 5.00 | < 5.00 | 5.10 | NC(=O)c1cccc2[nH]c(-c3ccc(NC(=O)CCC(=O)NO)cc3)nc12 |  |
| < 5.00 | 5.05 | < 5.00 | NC(=O)c1cccc2[nH]c(-c3ccc(NC(=O)CCCCCCCCC(=O)NO)cc3)nc12 |  |
| < 5.00 | < 5.00 | < 5.00 | C[C@]1(c2nc3c(C(N)=O)cccc3[nH]2)CCCN1 [VELIPARIB] | pIC50 (K562): < 5.00; pIC50 (FaDu): < 5.00; pIC50 (HH): < 5.00; pIC50 (SiHa): < 5.00; pIC50 (MOLT-4): < 5.00; pIC50 (MDA-MB-231): < 5.00 |
| < 5.00 | 5.32 | 5.53 | NC(=O)c1cccc2[nH]c(-c3ccc(NC(=O)CCCCC(=O)Nc4ccccc4N)cc3)nc12 |  |
| 5.36 | < 5.00 | 5.61 | NC(=O)c1cccc2[nH]c(-c3ccc(NC(=O)CCCCCC(=O)Nc4ccccc4N)cc3)nc12 |  |
| < 5.00 | < 5.00 | < 5.00 | NC(=O)c1cccc2[nH]c(-c3ccc(NC(=O)CCCC(=O)NO)cc3)nc12 |  |
| 5.68 | 5.73 | 5.49 | NC(=O)c1cccc2[nH]c(-c3ccc(NC(=O)CCCCCCC(=O)NO)cc3)nc12 |  |
| 5.69 | 5.70 | 5.22 | NC(=O)c1cccc2[nH]c(-c3ccc(NCc4ccc(/C=C/C(=O)NO)cc4)cc3)nc12 |  |
| 5.46 | 5.28 | 5.53 | Nc1ccccc1NC(=O)c1ccc(CNC(=O)OCc2ccccc2)cc1 | pIC50 (K562): 5.38; pIC50 (HH): 5.30; pIC50 (Histone deacetylase 2): 6.21; pIC50 (MOLT-4): 5.25; pIC50 (Histone deacetylase 1): 6.26; pIC50 (Histone deacetylase 3): 6.20 |
| 5.16 | 5.61 | 5.26 | NC(=O)c1cccc2[nH]c(-c3ccc(NC(=O)CCCCC(=O)NO)cc3)nc12 |  |
| < 5.00 | < 5.00 | 5.44 | NC(=O)c1cccc2[nH]c(-c3ccc(NCc4ccc(/C=C/C(=O)Nc5ccccc5N)cc4)cc3)nc12 |  |
| < 5.00 | < 5.00 | 5.31 | NC(=O)c1cccc2[nH]c(-c3ccc(NC(=O)CCCCCCCC(=O)Nc4ccccc4N)cc3)nc12 |  |
| < 5.00 | 5.12 | < 5.00 | NC(=O)c1cccc2[nH]c(-c3ccc(NC(=O)CCCCCCCC(=O)NO)cc3)nc12 |  |
| < 5.00 | < 5.00 | 5.49 | NC(=O)c1cccc2[nH]c(-c3ccc(NC(=O)CCCC(=O)Nc4ccccc4N)cc3)nc12 |  |
| 5.52 | 5.46 | 5.98 | NC(=O)c1cccc2[nH]c(-c3ccc(NC(=O)CCCCCCC(=O)Nc4ccccc4N)cc3)nc12 |  |
| < 5.00 | < 5.00 | 5.43 | NC(=O)c1cccc2[nH]c(-c3ccc(NC(=O)CCC(=O)Nc4ccccc4N)cc3)nc12 |  |
| 5.64 | 5.63 | 5.91 | NC(=O)c1cccc2[nH]c(-c3ccc(NCc4ccc(C(=O)NO)cc4)cc3)nc12 |  |
| < 5.00 | < 5.00 | 5.10 | NC(=O)c1cccc2[nH]c(-c3ccc(NC(=O)CCCCCCCCC(=O)Nc4ccccc4N)cc3)nc12 |  |
| 5.27 | 5.63 | 5.06 | NC(=O)c1cccc2[nH]c(-c3ccc(NC(=O)CCCCCC(=O)NO)cc3)nc12 |  |
